Experimental data: patent US20110306635A1, “PYRIDINE COMPOUNDS AS SUBTYPE SELECTIVE MODULATORS OF ALPHA2B AND /OR ALPHA 2C […]” (ALLERGAN ,INC., priority 2009, published 2011)

Legend:
Assay type in all cases: cell-based
[1] = target: T1, alpha 2A adrenergic receptor (Homo sapiens, UniProt P08913); assay: RSAT (Receptor Selection and Amplification Technology) assay, alpha 2A; details: cells expressing alpha 2A receptor alone; receptor-mediated growth response
T1 construct: expressed in transfected cells
T1 sequence (P08913 1-465): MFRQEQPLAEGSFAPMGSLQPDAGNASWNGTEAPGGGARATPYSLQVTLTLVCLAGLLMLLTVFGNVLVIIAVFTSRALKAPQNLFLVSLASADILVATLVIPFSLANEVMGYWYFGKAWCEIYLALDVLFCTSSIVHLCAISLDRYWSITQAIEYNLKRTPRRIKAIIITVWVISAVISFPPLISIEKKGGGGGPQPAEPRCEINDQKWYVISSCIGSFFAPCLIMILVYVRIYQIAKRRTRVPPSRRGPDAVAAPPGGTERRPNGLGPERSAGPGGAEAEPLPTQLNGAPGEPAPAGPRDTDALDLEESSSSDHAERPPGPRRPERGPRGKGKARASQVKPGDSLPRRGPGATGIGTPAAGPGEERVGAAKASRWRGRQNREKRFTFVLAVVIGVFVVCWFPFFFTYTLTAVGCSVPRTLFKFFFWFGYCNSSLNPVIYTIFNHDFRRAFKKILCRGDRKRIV
Method: (§1) The compounds were synthesized and tested for alpha adrenergic activity using the Receptor Selection and Amplification Technology (RSAT) assay (Messier et. al., 1995, Pharmacol. Toxicol. 76, pp. 308-311). Cells expressing each of the alpha-2 adrenergic receptors alone were incubated with the Compound 1 and a receptor-mediated growth response was measured. A compound's activity is expressed as its relative efficacy compared to a standard full agonist (see table). Compound of this invention activates alpha-2B and alpha-2C receptors.
(§2) The results of the RSAT assay with several exemplary compounds of the invention are disclosed in Table 1 below together with the chemical formulas of these exemplary compounds. EC50 values are nanomolar.

[2] = target: T2, alpha 2C adrenergic receptor (Homo sapiens, UniProt P18825); assay: RSAT (Receptor Selection and Amplification Technology) assay, alpha 2C; details: for EC50: cells expressing alpha 2C receptor alone, receptor-mediated growth response; for RSAT efficacy, Alpha 2C: relative efficacy compared to a standard full agonist (value in parentheses)
T2 construct: expressed in transfected cells
T2 sequence (P18825 1-462): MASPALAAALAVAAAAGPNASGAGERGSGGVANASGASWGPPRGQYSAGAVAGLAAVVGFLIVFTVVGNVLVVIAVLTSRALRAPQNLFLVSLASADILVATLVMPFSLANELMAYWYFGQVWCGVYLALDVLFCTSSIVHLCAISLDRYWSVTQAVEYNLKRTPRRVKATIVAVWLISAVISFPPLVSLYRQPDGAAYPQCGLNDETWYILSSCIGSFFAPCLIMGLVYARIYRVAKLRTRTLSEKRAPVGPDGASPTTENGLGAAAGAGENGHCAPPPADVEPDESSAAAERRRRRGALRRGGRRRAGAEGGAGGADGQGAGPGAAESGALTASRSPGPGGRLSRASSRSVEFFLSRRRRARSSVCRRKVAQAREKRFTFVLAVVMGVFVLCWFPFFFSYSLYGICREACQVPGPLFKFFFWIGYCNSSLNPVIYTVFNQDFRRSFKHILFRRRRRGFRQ
Method: as §1, §2

[3] = target: T3, alpha 2B adrenergic receptor (Homo sapiens, UniProt P18089); assay: RSAT (Receptor Selection and Amplification Technology) assay, alpha 2B; details: for EC50: cells expressing alpha 2B receptor alone, receptor-mediated growth response; for RSAT efficacy, Alpha 2B: relative efficacy compared to a standard full agonist (value in parentheses)
T3 construct: expressed in transfected cells
T3 sequence (P18089 1-450): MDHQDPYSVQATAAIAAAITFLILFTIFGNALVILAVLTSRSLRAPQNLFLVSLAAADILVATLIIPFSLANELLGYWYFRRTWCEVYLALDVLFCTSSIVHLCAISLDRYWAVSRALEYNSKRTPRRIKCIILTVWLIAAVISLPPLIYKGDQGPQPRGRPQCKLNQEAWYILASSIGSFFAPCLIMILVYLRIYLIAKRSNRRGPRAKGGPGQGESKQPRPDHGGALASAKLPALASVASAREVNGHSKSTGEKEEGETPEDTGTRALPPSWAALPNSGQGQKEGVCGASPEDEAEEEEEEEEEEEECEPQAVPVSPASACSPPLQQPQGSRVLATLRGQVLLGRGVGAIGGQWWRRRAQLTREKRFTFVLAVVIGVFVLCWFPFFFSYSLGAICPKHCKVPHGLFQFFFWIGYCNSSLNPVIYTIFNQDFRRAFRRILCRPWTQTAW
Method: as §1, §2

Row | SMILES | RSAT EC50 (nM); efficacy, Alpha 2A [1] | EC50 [2] | RSAT efficacy, Alpha 2C [2] | EC50 [3] | RSAT efficacy, Alpha 2B [3]
1 | Cc1nccc(C(C)c2c[nH]cn2)c1C (stereo not shown) [4-(1-(1H-imidazol-4-yl)ethyl)-2,3-dimethylpyridine] | Not active | 1290 nM | 0.35 | 16.7 nM | 0.99
2 | CC(c1c[nH]cn1)c1ccnc2c1CCCC2 (stereo not shown) [4-(1-(1H-imidazol-4-yl)ethyl)-5,6,7,8-tetrahydroquinoline] | Not active | 370 nM | 0.35 | 23.5 nM | 1.12
